Data as given in patent US9938322B2, “β-hairpin peptidomimetics” (priority 2013, dated 2018).
Where a SMILES comes first, the peptide text is derived from it. Side-chain parts run from the residue outwards. [ ]: non-standard residue; d: D form. Tyr(3-F) = N[C@@H](Cc1ccc(O)c(F)c1)C(=O)O; Cha = N[C@@H](CC1CCCCC1)C(=O)O; Agp = N=C(N)NC[C@H](N)C(=O)O; Chg = N[C@H](C(=O)O)C1CCCCC1; Tle = CC(C)(C)[C@H](N)C(=O)O; dDab = NCC[C@@H](N)C(=O)O; Orn = NCCC[C@H](N)C(=O)O; Dab = NCC[C@H](N)C(=O)O; Nva = CCC[C@H](N)C(=O)O; Dap = NC[C@H](N)C(=O)O

Test system: human red blood cells (hRBC)
Experiment: Hemolysis of human red blood cells
Format: cell-based
Conditions: red cells of human, 1 h, 100
How it was run: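 Washed fresh human erythrocytes (20% v/v, about 0.9×10^9 cells/ml final) incubated with peptide at 100 μg/ml for 1 h at 37° C with shaking. Supernatant OD540 read; hemolysis expressed relative to 2.5% Triton X-100 (100%) and PBS with 0.001% acetic acid (0%).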

Structure (SMILES) | Hemolysis at 100 μg/ml
CC(C)C[C@@H]1NC(=O)[C@@H]2CCCN2C(=O)[C@H]2CCCN2C(=O)[C@H](CO)NC(=O)[C@H](C)NC(=O)[C@H](C2CCCCC2)NC(=O)[C@H](CCN)NC(=O)[C@H](Cc2c[nH]c3ccccc23)NC(=O)[C@H](CCN)NC(=O)[C@@H](CCN)NC(=O)[C@H](CCCN)NC(=O)[C@H](CCN)NC(=O)[C@H](Cc2ccc(O)cc2)NC(=O)[C@H](C)NC1=O [compound 129] (cyclo(LAY[Dab][Orn][dDab][Dab]W[Dab][Chg]AS[dP]P)) | 1%
CC(C)C[C@@H]1NC(=O)[C@@H]2CCCN2C(=O)[C@H]2CCCN2C(=O)[C@H](CO)NC(=O)[C@H](C)NC(=O)[C@H](Cc2c[nH]c3ccccc23)NC(=O)[C@H](CCN)NC(=O)[C@H](Cc2c[nH]c3ccccc23)NC(=O)[C@H](CCN)NC(=O)[C@@H](CCN)NC(=O)[C@H](CCCCN)NC(=O)[C@H](CCN)NC(=O)[C@H](Cc2ccc(O)cc2)NC(=O)[C@H](CO)NC1=O [compound 108] (cyclo(LSY[Dab]K[dDab][Dab]W[Dab]WAS[dP]P)) | 1%
CC(C)C[C@@H]1NC(=O)[C@@H]2CCCN2C(=O)[C@H]2CCCN2C(=O)[C@H](CO)NC(=O)[C@H](C)NC(=O)[C@H](C(C)(C)C)NC(=O)[C@H](CCN)NC(=O)[C@H](Cc2c[nH]c3ccccc23)NC(=O)[C@H](CCN)NC(=O)[C@@H](CCN)NC(=O)[C@H](CCCN)NC(=O)[C@H](CN)NC(=O)[C@H](Cc2ccc(O)cc2)NC(=O)[C@H](CO)NC1=O [compound 91] (cyclo(LSY[Dap][Orn][dDab][Dab]W[Dab][Tle]AS[dP]P)) | 0%
CC(C)C[C@@H]1NC(=O)[C@@H]2CCCN2C(=O)[C@H]2CCCN2C(=O)[C@H](CO)NC(=O)[C@H](CO)NC(=O)[C@H](C(C)(C)C)NC(=O)[C@H](CCN)NC(=O)[C@H](Cc2c[nH]c3ccccc23)NC(=O)[C@H](CCN)NC(=O)[C@H](CCN)NC(=O)[C@H](CCCN)NC(=O)[C@H](CCN)NC(=O)[C@H](CC2CCCCC2)NC(=O)[C@H](CO)NC1=O [compound 143] (cyclo(LS[Cha][Dab][Orn][Dab][Dab]W[Dab][Tle]SS[dP]P)) | 0%
CCC[C@@H]1NC(=O)[C@H](CCN)NC(=O)[C@H](Cc2c[nH]c3ccccc23)NC(=O)[C@H](CCN)NC(=O)[C@@H](CCN)NC(=O)[C@H](CCCN)NC(=O)[C@H](CCN)NC(=O)[C@H](C(C)(C)C)NC(=O)[C@H](CO)NC(=O)[C@H](Cc2c[nH]c3ccccc23)NC(=O)[C@@H]2CCCN2C(=O)[C@H]2CCCN2C(=O)[C@H](CO)NC(=O)[C@H](C)NC1=O [compound 67] (cyclo(WS[Tle][Dab][Orn][dDab][Dab]W[Dab][Nva]AS[dP]P)) | 1%
CC(C)C[C@@H]1NC(=O)[C@@H]2CCCN2C(=O)[C@H]2CCCN2C(=O)[C@H](CO)NC(=O)[C@H](C)NC(=O)[C@H](CC2CCCCC2)NC(=O)[C@H](CCN)NC(=O)[C@H](Cc2c[nH]c3ccccc23)NC(=O)[C@H](CCN)NC(=O)[C@@H](CCN)NC(=O)[C@H](CCCCN)NC(=O)[C@H](CCN)NC(=O)[C@H](Cc2ccc(O)cc2)NC(=O)[C@H](C)NC1=O [compound 128] (cyclo(LAY[Dab]K[dDab][Dab]W[Dab][Cha]AS[dP]P)) | 2%
CCC[C@@H]1NC(=O)[C@@H]2CCCN2C(=O)[C@H]2CCCN2C(=O)[C@H](CO)NC(=O)[C@H](C)NC(=O)[C@H](C2CCCCC2)NC(=O)[C@H](CCN)NC(=O)[C@H](Cc2c[nH]c3ccccc23)NC(=O)[C@H](CCN)NC(=O)[C@@H](CCN)NC(=O)[C@H](CCCN)NC(=O)[C@H](CCN)NC(=O)[C@H](CC2CCCCC2)NC(=O)[C@H](CO)NC1=O [compound 134] (cyclo([Nva]S[Cha][Dab][Orn][dDab][Dab]W[Dab][Chg]AS[dP]P)) | 8%
CC(C)C[C@@H]1NC(=O)[C@@H]2CCCN2C(=O)[C@H]2CCCN2C(=O)[C@H](CO)NC(=O)[C@H](C)NC(=O)[C@H](C(C)(C)C)NC(=O)[C@H](CN)NC(=O)[C@H](Cc2c[nH]c3ccccc23)NC(=O)[C@H](CCN)NC(=O)[C@@H](CCN)NC(=O)[C@H](CCCN)NC(=O)[C@H](CCN)NC(=O)[C@H](Cc2ccc(O)cc2)NC(=O)[C@H](CO)NC1=O [compound 101] (cyclo(LSY[Dab][Orn][dDab][Dab]W[Dap][Tle]AS[dP]P)) | 1%
CCC[C@@H]1NC(=O)[C@@H]2CCCN2C(=O)[C@H]2CCCN2C(=O)[C@H](CO)NC(=O)[C@H](C)NC(=O)[C@H](C(C)(C)C)NC(=O)[C@H](CCN)NC(=O)[C@H](Cc2c[nH]c3ccccc23)NC(=O)[C@H](CCN)NC(=O)[C@@H](CCN)NC(=O)[C@H](CCCN)NC(=O)[C@H](CCN)NC(=O)[C@H](Cc2ccc(O)cc2)NC(=O)[C@H](CO)NC1=O [compound 47] (cyclo([Nva]SY[Dab][Orn][dDab][Dab]W[Dab][Tle]AS[dP]P)) | 1%
C[C@@H]1NC(=O)[C@H](Cc2c[nH]c3ccccc23)NC(=O)[C@@H]2CCCN2C(=O)[C@H]2CCCN2C(=O)[C@H](CO)NC(=O)[C@H](CNC(=N)N)NC(=O)[C@H](C(C)(C)C)NC(=O)[C@H](CCN)NC(=O)[C@H](Cc2c[nH]c3ccccc23)NC(=O)[C@H](CCN)NC(=O)[C@@H](CCN)NC(=O)[C@H](CCCN)NC(=O)[C@H](CCN)NC(=O)[C@H](CC2CCCCC2)NC1=O [compound 23] (cyclo(WA[Cha][Dab][Orn][dDab][Dab]W[Dab][Tle][Agp]S[dP]P)) | 1.7%
CC(C)C[C@@H]1NC(=O)[C@@H]2CCCN2C(=O)[C@H]2CCCN2C(=O)[C@H](CO)NC(=O)[C@H](C)NC(=O)[C@H](C(C)(C)C)NC(=O)[C@H](CCN)NC(=O)[C@H](Cc2c[nH]c3ccccc23)NC(=O)[C@H](CCN)NC(=O)[C@@H](CCN)NC(=O)[C@H](CCCN)NC(=O)[C@H](CCN)NC(=O)[C@H](Cc2ccc(O)cc2)NC(=O)[C@H](C)NC1=O [compound 43] (cyclo(LAY[Dab][Orn][dDab][Dab]W[Dab][Tle]AS[dP]P)) | 1%
CC(C)C[C@@H]1NC(=O)[C@@H]2CCCN2C(=O)[C@H]2CCCN2C(=O)[C@H](CO)NC(=O)[C@H](C)NC(=O)[C@H](C(C)(C)C)NC(=O)[C@H](CCN)NC(=O)[C@H](Cc2c[nH]c3ccccc23)NC(=O)[C@H](CCCN)NC(=O)[C@@H](CCN)NC(=O)[C@H](CCCN)NC(=O)[C@H](CCN)NC(=O)[C@H](Cc2ccc(O)cc2)NC(=O)[C@H](CO)NC1=O [compound 99] (cyclo(LSY[Dab][Orn][dDab][Orn]W[Dab][Tle]AS[dP]P)) | 0%
CCC[C@@H]1NC(=O)[C@@H]2CCCN2C(=O)[C@H]2CCCN2C(=O)[C@H](CO)NC(=O)[C@H](C)NC(=O)[C@H](C(C)(C)C)NC(=O)[C@H](CCN)NC(=O)[C@H](Cc2c[nH]c3ccccc23)NC(=O)[C@H](CCN)NC(=O)[C@@H](CCN)NC(=O)[C@H](CCCN)NC(=O)[C@H](CCN)NC(=O)[C@H](Cc2ccc(O)c(F)c2)NC(=O)[C@H](CO)NC1=O [compound 105] (cyclo([Nva]S[Tyr(3-F)][Dab][Orn][dDab][Dab]W[Dab][Tle]AS[dP]P)) | 1%
CC(C)C[C@@H]1NC(=O)[C@@H]2CCCN2C(=O)[C@H]2CCCN2C(=O)[C@H](CO)NC(=O)[C@H](CO)NC(=O)[C@H](Cc2c[nH]c3ccccc23)NC(=O)[C@H](CCN)NC(=O)[C@H](Cc2c[nH]c3ccccc23)NC(=O)[C@H](CCN)NC(=O)[C@@H](CCN)NC(=O)[C@H](CCCN)NC(=O)[C@H](CCN)NC(=O)[C@H](Cc2ccc(O)cc2)NC(=O)[C@H](CO)NC1=O [compound 111] (cyclo(LSY[Dab][Orn][dDab][Dab]W[Dab]WSS[dP]P)) | 1%
CCC[C@@H]1NC(=O)[C@@H]2CCCN2C(=O)[C@H]2CCCN2C(=O)[C@H](CO)NC(=O)[C@H](C)NC(=O)[C@H](C(C)(C)C)NC(=O)[C@H](CCN)NC(=O)[C@H](Cc2c[nH]c3ccccc23)NC(=O)[C@H](CCN)NC(=O)[C@@H](CCN)NC(=O)[C@H](CCCN)NC(=O)[C@H](CCN)NC(=O)[C@H](Cc2ccc(O)cc2)NC(=O)[C@H](C)NC1=O [compound 48] (cyclo([Nva]AY[Dab][Orn][dDab][Dab]W[Dab][Tle]AS[dP]P)) | 1%
CC(C)C[C@@H]1NC(=O)[C@@H]2CCCN2C(=O)[C@H]2CCCN2C(=O)[C@H]([C@@H](C)O)NC(=O)[C@H](C)NC(=O)[C@H](C(C)(C)C)NC(=O)[C@H](CCN)NC(=O)[C@H](Cc2c[nH]c3ccccc23)NC(=O)[C@H](CCN)NC(=O)[C@@H](CCN)NC(=O)[C@H](CCCN)NC(=O)[C@H](CCN)NC(=O)[C@H](Cc2ccc(O)cc2)NC(=O)[C@H](CO)NC1=O [compound 88] (cyclo(LSY[Dab][Orn][dDab][Dab]W[Dab][Tle]AT[dP]P)) | 1%
CC[C@H](C)[C@@H]1NC(=O)[C@@H]2CCCN2C(=O)[C@H]2CCCN2C(=O)[C@H]([C@@H](C)O)NC(=O)[C@H]([C@@H](C)O)NC(=O)[C@H](C(C)(C)C)NC(=O)[C@H](CCN)NC(=O)[C@H](Cc2c[nH]c3ccccc23)NC(=O)[C@H](CCN)NC(=O)[C@@H](CCN)NC(=O)[C@H](CCN)NC(=O)[C@H](CCN)NC(=O)[C@H](Cc2ccc(O)cc2)NC(=O)[C@H](C)NC1=O [compound 133] (cyclo(IAY[Dab][Dab][dDab][Dab]W[Dab][Tle]TT[dP]P)) | 1%
CC(C)C[C@@H]1NC(=O)[C@H](C)NC(=O)[C@H](C(C)(C)C)NC(=O)[C@H](CCN)NC(=O)[C@H](Cc2c[nH]c3ccccc23)NC(=O)[C@H](CCN)NC(=O)[C@@H](CCN)NC(=O)[C@H](CCCN)NC(=O)[C@H](CCN)NC(=O)[C@H](Cc2ccc(O)cc2)NC(=O)[C@H](CO)NC(=O)[C@H]([C@@H](C)O)NC(=O)[C@@H]2CCCN2C(=O)[C@H]2CCCN2C1=O [compound 161] (cyclo(TSY[Dab][Orn][dDab][Dab]W[Dab][Tle]AL[dP]P)) | 2%
CC(=O)N[C@H](C(=O)NC[C@@H]1NC(=O)[C@H](Cc2c[nH]c3ccccc23)NC(=O)[C@@H]2CCCN2C(=O)[C@H]2CCCN2C(=O)[C@H](CO)NC(=O)[C@H](C)NC(=O)[C@H](C(C)(C)C)NC(=O)[C@H](CCN)NC(=O)[C@H](Cc2c[nH]c3ccccc23)NC(=O)[C@H](CCN)NC(=O)[C@@H](CCN)NC(=O)[C@H](CCCN)NC(=O)[C@H](CCN)NC(=O)[C@H](CC2CCCCC2)NC1=O)[C@@H](C)O [compound 15] (cyclo(W[Dap]([Thr-Ac])[Cha][Dab][Orn][dDab][Dab]W[Dab][Tle]AS[dP]P)) | 1%
